From patent US20060264460A1 (Wyeth, priority 2005, published 2006)

What follows are molecules tested against T1, human Cot/Tpl2 kinase (Homo sapiens, UniProt P41279) (assay: Tpl2/Cot kinase assay: GST-MEK1 phosphorylation detected by ELISA (DELFIA Eu)). Settings: 0.4 nM Tpl2, 35 nM GST-MEK1, 50 uM ATP, 1 h at 30° C.
T1 construct: human Cot/Tpl2 kinase construct encoding residues 30-398; 6His (N); made in house; host or cells: Sf9 insect cells, baculovirus system (BD Biosciences)
Type: biochemical
Method in brief: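 His-tagged human Tpl2 from Sf9 cells, Ni-affinity and size-exclusion purified (monomer). 0.4 nM Tpl2 with 35 nM GST-MEK1, 50 uM ATP, MOPS pH 7.2, 1% DMSO, 1 h at 30° C; EDTA stop. MEK1 Ser217/221 phosphorylation detected by anti-phospho-MEK1 and Eu-labelled secondary ELISA; IC50 fitted.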

T1 sequence (P41279 30-398): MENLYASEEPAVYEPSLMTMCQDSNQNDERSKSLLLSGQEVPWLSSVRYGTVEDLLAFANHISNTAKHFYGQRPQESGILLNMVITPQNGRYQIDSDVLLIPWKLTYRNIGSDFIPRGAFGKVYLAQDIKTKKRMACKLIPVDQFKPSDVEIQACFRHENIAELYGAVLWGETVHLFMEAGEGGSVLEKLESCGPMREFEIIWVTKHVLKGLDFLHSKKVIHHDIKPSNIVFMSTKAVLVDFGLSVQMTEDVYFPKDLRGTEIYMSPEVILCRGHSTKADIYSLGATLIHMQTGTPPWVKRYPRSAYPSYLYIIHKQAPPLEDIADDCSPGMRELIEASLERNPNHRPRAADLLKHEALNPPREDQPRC

SMILES | IC50 [µM]
Cc1noc(Nc2c(C#N)cnc3ccc(NCc4cnc[nH]4)cc23)c1C [Example 262, 4-[(3,4-dimethylisoxazol-5-yl)amino]-6-[(1H-imidazol-5-ylmethyl)amino]quinoline-3-carbonitrile] | 2.2
N#Cc1cnc2ccc(NCc3cnc[nH]3)cc2c1Nc1cccnc1 [Example 263, 6-[(1H-imidazol-5-ylmethyl)amino]-4-(pyridin-3-ylamino)quinoline-3-carbonitrile] | 1.6
N#Cc1cnc2ccc(NCc3cnc[nH]3)cc2c1Nc1ccncc1 [Example 264, 6-[(1H-imidazol-5-ylmethyl)amino]-4-(pyridin-4-ylamino)quinoline-3-carbonitrile] | 2.5
N#Cc1cnc2c(F)cc(NCc3ccn[nH]3)cc2c1Nc1ccc(F)c(Cl)c1 [Example 267, 4-[(3-chloro-4-fluorophenyl)amino]-8-fluoro-6-[(1H-pyrazol-5-ylmethyl)amino]quinoline-3-carbonitrile] | 0.1
N#Cc1cnc2c(F)cc(NCc3cc[n+]([O-])cc3)cc2c1Nc1ccc(F)c(Cl)c1 [Example 270, 4-[(3-Chloro-4-fluorophenyl)amino]-8-fluoro-6-{[(1-oxidopyridin-4-yl)methyl]amino}quinoline-3-carbonitrile] | 0.1
N#Cc1cnc2c(Cl)cc(NCc3cc[n+]([O-])cc3)cc2c1Nc1ccc(F)c(Cl)c1 [Example 271, 8-Chloro-4-[(3-chloro-4-fluorophenyl)amino]-6-{[(1-oxidopyridin-4-yl)methyl]amino}quinoline-3-carbonitrile] | 0.054
COc1ccc(CNc2cc(Cl)c3ncc(C#N)c(Nc4ccc(F)c(Cl)c4)c3c2)cc1OCCN1CCOCC1 [Example 273, 8-Chloro-4-[(3-chloro-4-fluorophenyl)amino]-6-{[4-methoxy-3-(2-morpholin-4-ylethoxy)benzyl]amino}quinoline-3-carbonitrile] | 0.083
N#Cc1cnc2c(Cl)cc(NCc3ccc(C(F)(F)F)[n+]([O-])c3)cc2c1Nc1ccc(F)c(Cl)c1 [Example 275, 8-Chloro-4-[(3-chloro-4-fluorophenyl)amino]-6-({[1-oxido-6-(trifluoromethyl)pyridin-3-yl]methyl}amino)quinoline-3-carbonitrile] | 0.37
COc1c(C)cnc(CNc2cc(Cl)c3ncc(C#N)c(Nc4ccc(F)c(Cl)c4)c3c2)c1C [Example 276, 8-chloro-4-[(3-chloro-4-fluorophenyl)amino]-6-{[(4-methoxy-3,5-dimethylpyridin-2-yl)methyl]amino}quinoline-3-carbonitrile] | 4.7
COc1c(C)c[n+]([O-])c(CNc2cc(Cl)c3ncc(C#N)c(Nc4ccc(F)c(Cl)c4)c3c2)c1C [Example 277, 8-Chloro-4-[(3-chloro-4-fluorophenyl)amino]-6-{[(4-methoxy-3,5-dimethyl-1-oxidopyridin-2-yl)methyl]amino}quinoline-3-carbonitrile] | 0.066
N#Cc1cnc2c(Cl)cc(NCc3ccnc4ccccc34)cc2c1Nc1ccc(F)c(Cl)c1 [Example 278, 8-Chloro-4-[(3-chloro-4-fluorophenyl)amino]-6-[(quinolin-4-ylmethyl)amino]quinoline-3-carbonitrile] | 0.46
CNc1nc(SC)ncc1CNc1cc(Cl)c2ncc(C#N)c(Nc3ccc(F)c(Cl)c3)c2c1 [Example 280, 8-chloro-4-[(3-chloro-4-fluorophenyl)amino]-6-({[4-(methylamino)-2-(methylthio)pyrimidin-5-yl]methyl]amino)quinoline-3-carbonitrile] | > 40
N#Cc1cnc2c(Cl)cc(NCCc3cnc[nH]3)cc2c1Nc1ccc(F)c(Cl)c1 [Example 283, 8-chloro-4-[(3-chloro-4-fluorophenyl)amino]-6-{[2-(1H-imidazol-5-yl)ethyl]amino}quinoline-3-carbonitrile] | 0.13
CS(=O)(=O)c1cc(NCc2cnc[nH]2)cc2c(Nc3ccc(F)c(Cl)c3)c(C#N)cnc12 [Example 286, 4-[(3-chloro-4-fluorophenyl)amino]-6-[(1H-imidazol-5-ylmethyl)amino]-8-(methylsulfonyl)quinoline-3-carbonitrile] | 0.19
CSc1cc(NCc2cnc[nH]2)cc2c(Nc3ccc(F)c(Cl)c3)c(C#N)cnc12 [Example 287, 4-[(3-chloro-4-fluorophenyl)amino]-6-[(1H-imidazol-5-ylmethyl)amino]-8-(methylthio)quinoline-3-carbonitrile] | 0.34
COc1ccc(Cn2cc(CNc3cc(Br)c4ncc(C#N)c(Nc5ccc(F)c(Cl)c5)c4c3)nn2)cc1 [Example 289] | 0.203
N#Cc1cnc2c(Br)cc(NCc3nc(-c4ccccc4)n[nH]3)cc2c1Nc1ccc(F)c(Cl)c1 [Example 290, 8-Bromo-4-(3-chloro-4-fluoro-phenylamino)-6-[(5-phenyl-2H-[1,2,4]triazol-3-ylmethyl)-amino]-quinoline-3-carbonitrile] | > 40
N#Cc1cnc2c(Br)cc(NCc3nn[nH]c3CO)cc2c1Nc1ccc(F)c(Cl)c1 [Example 294, 8-Bromo-4-(3-chloro-4-fluoro-phenylamino)-6-[(5-hydroxymethyl-1H-[1,2,3]triazol-4-ylmethyl)-amino]-quinoline-3-carbonitrile] | 0.5
N#Cc1cnc2c(Br)cc(NCc3nn[nH]c3CNCCO)cc2c1Nc1ccc(F)c(Cl)c1 [Example 295, 8-Bromo-4-(3-chloro-4-fluoro-phenylamino)-6-({5-[(2-hydroxy-ethylamino)-methyl]-1H-[1,2,3]triazol-4-ylmethyl}-amino)-quinoline-3-carbonitrile] | 0.067

Stronger by IC50, values ahead:

IC50 [µM] | SMILES
0.021 | N#Cc1cnc2c(F)cc(NCc3cnc[nH]3)cc2c1Nc1ccc(F)c(Cl)c1 [Example 265, 4-[(3-Chloro-4-fluorophenyl)amino]-8-fluoro-6-[(1H-imidazol-5-ylmethyl)amino]quinoline-3-carbonitrile]
0.013 | N#Cc1cnc2c(F)cc(NCc3cccc[n+]3[O-])cc2c1Nc1ccc(F)c(Cl)c1 [Example 266, 4-[(3-chloro-4-fluorophenyl)amino]-8-fluoro-6-{[(1-oxidopyridin-2-yl)methyl]amino}quinoline-3-carbonitrile]
0.012 | Cn1ccnc1CNc1cc(F)c2ncc(C#N)c(Nc3ccc(F)c(Cl)c3)c2c1 [Example 268, 4-[(3-Chloro-4-fluorophenyl)amino]-8-fluoro-6-{[(1-methyl-1H-imidazol-2-yl)methyl]amino}quinoline-3-carbonitrile]
0.016 | Cc1c(CNc2cc(F)c3ncc(C#N)c(Nc4ccc(F)c(Cl)c4)c3c2)ncn1C [Example 269, 4-[(3-chloro-4-fluorophenyl)amino]-6-{[(1,5-dimethyl-1H-imidazol-4-yl)methyl]amino}-8-fluoroquinoline-3-carbonitrile]
0.047 | N#Cc1cnc2c(Cl)cc(NCc3cncnc3)cc2c1Nc1ccc(F)c(Cl)c1 [Example 272, 8-Chloro-4-(3-chloro-4-fluoro-phenylamino)-6-[(pyrimidin-5-ylmethyl)-amino]-quinoline-3-carbonitrile]
0.035 | N#Cc1cnc2c(Cl)cc(NCc3cccc(N4CCOCC4)n3)cc2c1Nc1ccc(F)c(Cl)c1 [Example 274, 8-chloro-4-[(3-chloro-4-fluorophenyl)amino]-6-{[(6-morpholin-4-ylpyridin-2-yl)methyl]amino}quinoline-3-carbonitrile]
0.0026 | N#Cc1cnc2c(Cl)cc(NCc3nnn[nH]3)cc2c1Nc1ccc(F)c(Cl)c1 [Example 279, 8-Chloro-4-[(3-chloro-4-fluorophenyl)amino]-6-[(1 H-tetrazol-5-ylmethyl)amino]quinoline-3-carbonitrile]
0.042 | CSc1ncc(CNc2cc(Cl)c3ncc(C#N)c(Nc4ccc(F)c(Cl)c4)c3c2)cn1 [Example 281, 8-Chloro-4-[(3-chloro-4-fluorophenyl)amino]-6-({[2-(methylthio)pyrimidin-5-yl]methyl]amino)quinoline-3-carbonitrile]
0.023 | CS(=O)(=O)c1nccc(CNc2cc(Cl)c3ncc(C#N)c(Nc4ccc(F)c(Cl)c4)c3c2)n1 [Example 282, 8-Chloro-4-[(3-chloro-4-fluorophenyl)amino]-6-({[2-(methylsulfonyl)pyrimidin-4-yl]methyl}amino)quinoline-3-carbonitrile]
0.02 | C[S+]([O-])c1cc(NCc2cnc[nH]2)cc2c(Nc3ccc(F)c(Cl)c3)c(C#N)cnc12 (stereo not drawn) [Example 284, 4-[(3-chloro-4-fluorophenyl)amino]-6-[(1H-imidazol-5-ylmethyl)amino]-8-(methylsulfinyl)quinoline-3-carbonitrile]
0.0035 | N#Cc1cnc2c(Br)cc(NCc3cn(-c4ccc(C(=O)O)cc4)nn3)cc2c1Nc1ccc(F)c(Cl)c1 [Example 292, 4-(4-{[8-Bromo-4-(3-chloro-4-fluoro-phenylamino)-3-cyano-quinolin-6-ylamino]-methyl}-[1,2,3]triazol-1-yl)-benzoic acid]
0.013 | CCOC(OCC)c1[nH]nnc1CNc1cc(Br)c2ncc(C#N)c(Nc3ccc(F)c(Cl)c3)c2c1 [Example 293, 8-Bromo-4-(3-chloro-4-fluoro-phenylamino)-6-[(5-diethoxymethyl-1H-[1,2,3]triazol-4-ylmethyl)-amino]-quinoline-3-carbonitrile]
0.015 | N#Cc1cnc2c(Br)cc(NCc3cn(CCN4CCCCC4)nn3)cc2c1Nc1ccc(F)c(Cl)c1 [Example 296, 8-Bromo-4-(3-chloro-4-fluoro-phenylamino)-6-{[1-(2-piperidin-1-yl-ethyl)-1H-[1,2,3]triazol-4-ylmethyl]-amino}-quinoline-3-carbonitrile]
0.029 | N#Cc1cnc2c(Br)cc(NCc3cn(CCN4CCOCC4)nn3)cc2c1Nc1ccc(F)c(Cl)c1 [Example 297, 8-Bromo-4-(3-chloro-4-fluoro-phenylamino)-6-{[1-(2-morpholin-4-yl-ethyl)-1H-[1,2,3]triazol-4-ylmethyl]-amino}-quinoline-3-carbonitrile]
